Patent US7384959B2, “Treatment of convulsive states” (priority 1999, dated 2008)

Experiments:
[1] = biological target: T1, cytochrome P450 sub-type 1A2 (Homo sapiens, UniProt P05177); test: effect on cytochrome P450 activity; format: in vitro ADME
T1 sequence (P05177 1-516): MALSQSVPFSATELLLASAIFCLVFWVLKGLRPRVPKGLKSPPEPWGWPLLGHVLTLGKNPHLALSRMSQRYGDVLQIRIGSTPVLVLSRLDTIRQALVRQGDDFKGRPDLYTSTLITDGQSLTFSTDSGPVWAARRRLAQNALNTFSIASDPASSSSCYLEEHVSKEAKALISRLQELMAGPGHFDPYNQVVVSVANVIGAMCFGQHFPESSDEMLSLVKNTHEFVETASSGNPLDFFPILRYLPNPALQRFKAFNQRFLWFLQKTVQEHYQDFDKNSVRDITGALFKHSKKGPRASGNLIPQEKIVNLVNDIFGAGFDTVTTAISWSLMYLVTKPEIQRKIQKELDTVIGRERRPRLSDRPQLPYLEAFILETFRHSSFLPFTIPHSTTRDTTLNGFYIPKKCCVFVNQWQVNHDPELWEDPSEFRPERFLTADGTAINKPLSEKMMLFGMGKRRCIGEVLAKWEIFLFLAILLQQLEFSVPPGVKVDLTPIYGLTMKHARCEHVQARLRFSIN
Procedure: (§1) At very high doses, some inhibition of cytochrome P450 sub-types C8/9, 2C18/19 and 2D6 was found, but the concentrations required to inhibit enzyme activities (100 μM) were much greater than the maximum concentrations likely to be found in vivo and are therefore not likely to be clinically relevant.

[2] = test system: cytochrome P450 sub-type 2C18/19; test: effect on cytochrome P450 activity; format: in vitro ADME; conditions: some inhibition at very high doses
Procedure: as §1

[3] = cited from earlier work
[4] = after intravenous dosing; Ding et al 1997; cited from earlier work

Question: With `COC(=O)[C@@H](c1ccccc1)[C@@H]1CCCCN1` [l-MPH, l-threo-Methylphenidate] as the compound, how does the “effect on activity of cytochrome P450 sub-type 1A2” value [1] read?
Answer: little or no effect

Question: What about the “concentration required to inhibit enzyme activity, cytochrome P450 sub-type 2C18/19” value [2] of the same compound?
Answer: 100 µM

Question: And the “systemic availability following oral dosing” value [3]?
Answer: very little l-MPH enters the circulation or becomes available to the brain

Question: What about the “detection in the brain” value [4] of the same compound?
Answer: detected in the brain
